Measurements as given in patent publication US20120295907A1, “INSECTICIDAL COMPOUNDS” (SYNGENTA CROP PROTECTION, LLC, priority 2009, published 2012).

Experiments:
Format in all cases: in vivo
[1] = test system: Heliothis virescens; assay: Heliothis virescens (Tobacco Budworm) egg test on artificial diet; settings: 96 h, 200 ppm (concentration in well 18 ppm), eggs 0-24 h old on artificial diet, 4 days, egg mortality, larval mortality, growth regulation
[2] = test system: Myzus persicae; assay: Myzus persicae (Green Peach Aphid) sunflower leaf disc spray test; settings: foliar, 144 h, 200 ppm spray on sunflower leaf discs, aphid population of mixed ages, 6 DAT, mortality
[3] = test system: Plutella xylostella; assay: Plutella xylostella (Diamond Back Moth) artificial diet MTP test; settings: 144 h, 200 ppm (concentration in well 18 ppm), L2 larvae, 6 days, larval mortality, growth regulation
[4] = test system: Spodoptera littoralis; assay: Spodoptera littoralis (Egyptian Cotton Leafworm) cotton leaf disc spray test; settings: foliar, 72 h, 200 ppm spray on cotton leaf discs, L1 larvae, mortality, feeding behavior, growth regulation 3 DAT
[5] = test system: Tetranychus urticae; assay: Tetranychus urticae (Two-Spotted Spider Mite) bean leaf disc spray test; settings: foliar, 192 h, 200 ppm spray on bean leaf discs, mite populations of mixed ages, 8 days, egg, larval and adult mortality, read-out: control of Tetranychus urticae
[6] = test system: Diabrotica balteata; assay: Diabrotica balteata (Corn Root Worm) artificial diet MTP test; settings: 120 h, 200 ppm (concentration in well 18 ppm), L2 larvae, 5 days, larval mortality, growth regulation
[7] = test system: Thrips tabaci; assay: Thrips tabaci (Onion Thrips) sunflower leaf disc spray test; settings: foliar, 168 h, 200 ppm spray on sunflower leaf discs, population of mixed ages, 7 days, mortality

Measured: pest or weed control at 200 ppm

COc1c(NC(=O)c2ccc(F)cc2Cl)cccc1C(=O)Nc1c(Cl)cc(C(F)(C(F)(F)F)C(F)(F)C(F)(F)F)cc1Br (centres unmarked) [B2, N-[2-bromo-6-chloro-4-(1,2,2,3,3,3-hexafluoro-1-trifluoromethylpropyl)phenyl]-3-(4-fluoro-2-chlorobenzoylamino)-2-methoxybenzamide]
not listed: [6] | [7]
≥ 80%: all other assays above

COc1c(NC(=O)c2ccccc2Cl)cccc1C(=O)Nc1c(Cl)cc(C(F)(C(F)(F)F)C(F)(F)C(F)(F)F)cc1Br (centres unmarked) [B5]
not listed: [7]
≥ 80%: all other assays above

COc1c(NC(=O)c2ccc(C#N)cc2)cccc1C(=O)Nc1c(Cl)cc(C(F)(C(F)(F)F)C(F)(F)C(F)(F)F)cc1Br (centres unmarked) [B6]
not listed: [6] | [7]
≥ 80%: all other assays above

COc1c(NC(=O)c2ccc([N+](=O)[O-])cc2)cccc1C(=O)Nc1c(Cl)cc(C(F)(C(F)(F)F)C(F)(F)C(F)(F)F)cc1Br (centres unmarked) [B7]
not listed: [6] | [7]
≥ 80%: all other assays above

COc1c(NC(=O)c2ccc(C)cc2)cccc1C(=O)Nc1c(Cl)cc(C(F)(C(F)(F)F)C(F)(F)C(F)(F)F)cc1Br (centres unmarked) [B8]
not listed: [6] | [7]
≥ 80%: all other assays above

COc1c(NC(=O)c2ccc(C(F)(F)F)cc2)cccc1C(=O)Nc1c(Cl)cc(C(F)(C(F)(F)F)C(F)(F)C(F)(F)F)cc1Br (centres unmarked) [B15]
not listed: [6] | [7]
≥ 80%: all other assays above

COc1c(NC(=O)c2ccc(F)cc2)cccc1C(=O)Nc1c(Cl)cc(C(F)(C(F)(F)F)C(F)(F)C(F)(F)F)cc1Br (centres unmarked) [B19]
not listed: [6] | [7]
≥ 80%: all other assays above

COc1c(NC(=O)c2cccnc2)cccc1C(=O)Nc1c(Cl)cc(C(F)(C(F)(F)F)C(F)(F)C(F)(F)F)cc1Br (centres unmarked) [B37]
not listed: [1] | [5]
≥ 80%: all other assays above

COc1c(NC(=O)c2cccs2)cccc1C(=O)Nc1c(Cl)cc(C(F)(C(F)(F)F)C(F)(F)C(F)(F)F)cc1Br (centres unmarked) [B44]
not listed: [5]
≥ 80%: all other assays above

COc1c(NC(=O)c2cccnc2SC)cccc1C(=O)Nc1c(Cl)cc(C(F)(C(F)(F)F)C(F)(F)C(F)(F)F)cc1Br (centres unmarked) [B45]
not listed: [5]
≥ 80%: all other assays above

COc1cc(C(=O)Nc2cccc(C(=O)Nc3c(Cl)cc(C(F)(C(F)(F)F)C(F)(F)C(F)(F)F)cc3Br)c2OC)on1 (centres unmarked) [B89]
not listed: [5]
≥ 80%: all other assays above

COc1c(NC(=O)c2csnc2C)cccc1C(=O)Nc1c(Cl)cc(C(F)(C(F)(F)F)C(F)(F)C(F)(F)F)cc1Br (centres unmarked) [B98]
not listed: [7]
≥ 80%: all other assays above

COc1c(NC(=O)c2ccc(C)s2)cccc1C(=O)Nc1c(Cl)cc(C(F)(C(F)(F)F)C(F)(F)C(F)(F)F)cc1Br (centres unmarked) [B137]
not listed: [5]
≥ 80%: all other assays above

COc1c(NC(=O)c2c(F)cc(F)cc2F)cccc1C(=O)Nc1c(Cl)cc(C(F)(C(F)(F)F)C(F)(F)C(F)(F)F)cc1Br (centres unmarked) [B189, N-{3-[2-Bromo-6-chloro-4-(1,2,2,3,3,3-hexafluoro-1-trifluoromethylpropyl)-phenylcarbamoyl]-2-methoxyphenyl}-2,4,6-trifluorobenzamide]
not listed: [6] | [7]
≥ 80%: all other assays above

COc1c(NC(=O)c2ccc(F)cc2Cl)cccc1C(=O)Nc1c(Cl)cc(C(F)(C(F)(F)F)C(F)(F)C(F)(F)F)cc1Cl (centres unmarked) [C1, N-[2,6-dichloro-4-(1,2,2,3,3,3-hexafluoro-1-trifluoromethylpropyl)phenyl]-3-(4-fluoro-2-chlorobenzoylamino)-2-methoxybenzamide]
not listed: [5]
≥ 80%: all other assays above

COc1c(NC(=O)c2ccccc2F)cccc1C(=O)Nc1c(Cl)cc(C(F)(C(F)(F)F)C(F)(F)F)cc1Cl [E1]
not listed: [3] | [5]
≥ 80%: all other assays above

COc1c(NC(=O)c2ccccc2C)cccc1C(=O)Nc1c(Cl)cc(C(F)(C(F)(F)F)C(F)(F)F)cc1Cl [E2]
not listed: [3] | [5]
≥ 80%: all other assays above

COc1c(NC(=O)c2ccc(C)cc2)cccc1C(=O)Nc1c(Cl)cc(C(F)(C(F)(F)F)C(F)(F)F)cc1Cl [E6]
not listed: [5]
≥ 80%: all other assays above

COc1c(NC(=O)c2ccc(OC(F)(F)F)cc2)cccc1C(=O)Nc1c(Cl)cc(C(F)(C(F)(F)F)C(F)(F)F)cc1Cl [E11]
not listed: [5]
≥ 80%: all other assays above

COc1c(NC(=O)c2ccccc2)cccc1C(=O)Nc1c(Cl)cc(C(F)(C(F)(F)F)C(F)(F)F)cc1Cl [E16]
not listed: [5]
≥ 80%: all other assays above

COc1c(NC(=O)c2cccc(F)c2F)cccc1C(=O)Nc1c(Cl)cc(C(F)(C(F)(F)F)C(F)(F)F)cc1Cl [E21]
not listed: [5]
≥ 80%: all other assays above

COc1c(NC(=O)c2c(F)cc(F)cc2F)cccc1C(=O)Nc1c(Cl)cc(C(F)(C(F)(F)F)C(F)(F)F)cc1Br [G3]
not listed: [7]
≥ 80%: all other assays above

COc1c(NC(=O)c2c(F)cc(C#N)cc2F)cccc1C(=O)Nc1c(Cl)cc(C(F)(C(F)(F)F)C(F)(F)F)cc1Br [G4]
not listed: [7]
≥ 80%: all other assays above

COc1c(NC(=O)c2ccc(F)cc2Cl)cccc1C(=O)Nc1c(Cl)cc(C(F)(C(F)(F)F)C(F)(F)F)cc1Br [G5]
not listed: [7]
≥ 80%: all other assays above

COCc1cc(C(F)(C(F)(F)F)C(F)(F)C(F)(F)F)cc(Cl)c1NC(=O)c1cccc(NC(=O)c2ccc(F)cc2Cl)c1OC (centres unmarked) [H25]
not listed: [4] | [5]
≥ 80%: all other assays above

COCc1cc(C(F)(C(F)(F)F)C(F)(F)C(F)(F)F)cc(Br)c1NC(=O)c1cccc(NC(=O)c2c(F)cc(F)cc2F)c1OC (centres unmarked) [I2]
not listed: [4] | [5]
≥ 80%: all other assays above

COCc1cc(C(F)(C(F)(F)F)C(F)(F)C(F)(F)F)cc(Br)c1NC(=O)c1cccc(NC(=O)c2ccc(F)cc2Cl)c1OC (centres unmarked) [I25]
not listed: [4] | [5]
≥ 80%: all other assays above
